Format in all cases: cell-based
The test system of experiment [1] is Pseudomonas aeruginosa FADDI-PA01. Particulars: FADDI-. The essentials: (§1)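 MIC; CLSI broth microdilution; cation-adjusted MH broth; test articles as TFA salts; polymyxin B control; polymyxin-susceptible isolates.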
For experiment [2], the system named is Klebsiella pneumoniae Kp BM1. Particulars: Kp BM1. The essentials: (§2)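 Following CLSI procedure M100-S24, minimum inhibitory concentrations of trifluoroacetate lipopeptides are measured in cation-adjusted Mueller-Hinton medium by broth microdilution, alongside a polymyxin B sulphate control.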
Experiment [3] concerns Enterobacter cloacae FADDI-EC001. Particulars: FADDI-EC001. The essentials:
as §2

Experiment [4] concerns Enterobacter cloacae FADDI-EC003. The conditions noted are these: FADDI-EC003. The essentials:
as §1

Experiment [5] deals with Pseudomonas aeruginosa FADDI-PA038. Particulars: FADDI-PA038. The essentials:
as §1

Experiment [6] has as its system Pseudomonas aeruginosa ATCC 27853. The conditions noted are these: ATCC 27853. The essentials: as §1
In experiment [7] the test system is Pseudomonas aeruginosa FADDI-PA022. Particulars: FADDI-PA022. The essentials: as §1
Experiment [8] has as its system Acinetobacter baumannii FADDI-AB034. The conditions noted are these: FADDI-AB034. The essentials:
as §1

The test system of experiment [9] is Klebsiella pneumoniae FADDI-KP022. Particulars: FADDI-KP022. The essentials:
as §1

In experiment [10] the test system is Acinetobacter baumannii ATCC 17978. The conditions noted are these: ATCC 17978. The essentials:
as §1

Experiment [11] concerns Klebsiella pneumoniae FADDI-KP032. The conditions noted are these: FADDI-KP032. The essentials:
as §1

Experiment [12] concerns Enterobacter cloacae FADDI-EC006. Particulars: FADDI-EC006. The essentials: as §1
The test system of experiment [13] is Acinetobacter baumannii FADDI-AB030. Nature of the experiment: microbe, parasite or virus in culture. The conditions noted are these: FADDI-AB030. The essentials: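 Broth microdilution MIC in cation-adjusted Mueller-Hinton broth per CLSI M100-S24; lipopeptides tested as TFA salts. FADDI-AB030 is a multidrug-resistant clinical isolate. Polymyxin B sulphate served as control.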

In brackets after ≈: the same amount, converted by molar mass. Where a SMILES comes first, the peptide text is derived from it. Bridges are numbered along the chain shown (N, C = ends). [ ]: non-standard residue; d: D form. The star is where a group is joined. Benzothiazole(2-CH2CH2CO) = O=C(CCc1nc2ccccc2s1)*; X57 = O=C(c1nc2cc(Cl)ccc2[nH]1)*; X16 = O=C(c1cnc(-c2ccccc2)nc1)*; X27 = O=C(c1sc2ccccc2c1Cl)*; X39 = O=C(c1noc2ccccc12)*; X7 = O=C(c1nc2ccccc2o1)*; Dab = NCC[C@H](N)C(=O)O; Abu = CC[C@H](N)C(=O)O; Dap = NC[C@H](N)C(=O)O

With `CC(C)C[C@H]1NC(=O)[C@H](CCN)NC(=O)[C@@H](NC(=O)[C@H](CN)NC(=O)[C@@H](NC(=O)[C@H](CCN)NC(=O)c2sc3ccccc3c2Cl)[C@@H](C)O)CCNC(=O)[C@H]([C@@H](C)O)NC(=O)[C@H](CCN)NC(=O)[C@H](CCN)NC(=O)[C@H]([C@@H](C)O)NC1=O` [Compound 68] (X27-[Dab]T[Dap][Dab][Dab][dL]T[Dab][Dab]T; lactam 4-C), the Minimum inhibitory concentration was 0.5 µg/mL (≈ 0.417 µM) in [1]; 0.25 µg/mL (≈ 0.209 µM) in experiment [2]; less than 0.125 µg/mL in experiment [3]; less than 0.125 µg/mL in experiment [4]; 1 µg/mL (≈ 0.835 µM) in [5]; 0.25 µg/mL (≈ 0.209 µM) in experiment [6]. Besides, the Minimum inhibitory concentration is 0.25 µg/mL (≈ 0.209 µM) in experiment [7]; less than 0.125 µg/mL in [8]; less than 0.125 µg/mL in experiment [9]; 0.25 µg/mL (≈ 0.209 µM) in experiment [10]; 0.25 µg/mL (≈ 0.209 µM) in experiment [11]; 0.25 µg/mL (≈ 0.209 µM) in experiment [12]. For the same compound, in experiment [13], the Minimum inhibitory concentration was less than 0.125 µg/mL.

Turning to `CC(C)C[C@H]1NC(=O)[C@H](CCN)NC(=O)[C@@H](NC(=O)[C@H](CN)NC(=O)[C@@H](NC(=O)[C@H](CCN)NC(=O)c2sc3ccccc3c2Cl)[C@@H](C)O)CCNC(=O)[C@H]([C@@H](C)O)NC(=O)[C@H](CCN)NC(=O)[C@H](CCN)NC(=O)[C@H](C)NC1=O` [Compound 69] (X27-[Dab]T[Dap][Dab][Dab][dL]A[Dab][Dab]T; lactam 4-C), the Minimum inhibitory concentration is 0.5 µg/mL (≈ 0.428 µM) in [1]; 0.25 µg/mL (≈ 0.214 µM) in experiment [2]; 1 µg/mL (≈ 0.856 µM) in experiment [3]; 0.25 µg/mL (≈ 0.214 µM) in experiment [4]; 2 µg/mL (≈ 1.71 µM) in experiment [5]; 0.5 µg/mL (≈ 0.428 µM) in [6]. The Minimum inhibitory concentration in experiment [7] was 0.5 µg/mL (≈ 0.428 µM); in experiment [8], 0.25 µg/mL (≈ 0.214 µM); in experiment [9], less than 0.125 µg/mL; in [10] it was 0.25 µg/mL (≈ 0.214 µM); in experiment [11], 0.25 µg/mL (≈ 0.214 µM); in experiment [12], 0.25 µg/mL (≈ 0.214 µM). Moreover, in experiment [13], the Minimum inhibitory concentration was determined as 0.25 µg/mL (≈ 0.214 µM).

With `CC[C@@H]1NC(=O)[C@@H](CC(C)C)NC(=O)[C@H](CCN)NC(=O)[C@@H](NC(=O)[C@H](CN)NC(=O)[C@@H](NC(=O)[C@H](CCN)NC(=O)c2nc3cc(Cl)ccc3[nH]2)[C@@H](C)O)CCNC(=O)[C@H]([C@@H](C)O)NC(=O)[C@H](CCN)NC(=O)[C@H](CCN)NC1=O` [Compound 71] (X57-[Dab]T[Dap][Dab][Dab][dL][Abu][Dab][Dab]T; lactam 4-C), the Minimum inhibitory concentration in [1] was 0.25 µg/mL (≈ 0.214 µM); in experiment [2], less than 0.125 µg/mL; in experiment [3] it was 0.25 µg/mL (≈ 0.214 µM); in experiment [4], less than 0.125 µg/mL; in experiment [5], 2 µg/mL (≈ 1.72 µM); in [6], 0.5 µg/mL (≈ 0.429 µM). Further, the Minimum inhibitory concentration in experiment [7] is 0.5 µg/mL (≈ 0.429 µM); in [8] it was 0.5 µg/mL (≈ 0.429 µM); in experiment [9] it was less than 0.125 µg/mL; in experiment [10], 0.5 µg/mL (≈ 0.429 µM); in experiment [11], less than 0.125 µg/mL; in experiment [12], less than 0.125 µg/mL. In experiment [13], this compound registered a Minimum inhibitory concentration of 0.25 µg/mL (≈ 0.214 µM).

For `CC[C@@H]1NC(=O)[C@@H](CC(C)C)NC(=O)[C@H](CCN)NC(=O)[C@@H](NC(=O)[C@H](CN)NC(=O)[C@@H](NC(=O)[C@H](CCN)NC(=O)CCc2nc3ccccc3s2)[C@@H](C)O)CCNC(=O)[C@H]([C@@H](C)O)NC(=O)[C@H](CCN)NC(=O)[C@H](CCN)NC1=O` [Compound 72] ({Benzothiazole(2-CH2CH2CO)}-[Dab]T[Dap][Dab][Dab][dL][Abu][Dab][Dab]T; lactam 4-C), the Minimum inhibitory concentration in experiment [1] is 0.5 µg/mL (≈ 0.425 µM); in experiment [2], less than 0.125 µg/mL; in experiment [3], less than 0.125 µg/mL; in experiment [4] it was less than 0.125 µg/mL; in experiment [5] it was 0.5 µg/mL (≈ 0.425 µM); in [6], 0.5 µg/mL (≈ 0.425 µM). The Minimum inhibitory concentration was 0.5 µg/mL (≈ 0.425 µM) in experiment [7]; 0.5 µg/mL (≈ 0.425 µM) in experiment [8]; less than 0.125 µg/mL in [9]; 0.5 µg/mL (≈ 0.425 µM) in experiment [10]; less than 0.125 µg/mL in [11]; less than 0.125 µg/mL in [12]. The compound further registered a Minimum inhibitory concentration in experiment [13] of 0.5 µg/mL (≈ 0.425 µM).

Turning to `CC[C@@H]1NC(=O)[C@@H](CC(C)C)NC(=O)[C@H](CCN)NC(=O)[C@@H](NC(=O)[C@H](CN)NC(=O)[C@@H](NC(=O)[C@H](CCN)NC(=O)c2cnc(-c3ccccc3)nc2)[C@@H](C)O)CCNC(=O)[C@H]([C@@H](C)O)NC(=O)[C@H](CCN)NC(=O)[C@H](CCN)NC1=O` [Compound 73] (X16-[Dab]T[Dap][Dab][Dab][dL][Abu][Dab][Dab]T; lactam 4-C), the Minimum inhibitory concentration was 0.5 µg/mL (≈ 0.428 µM) in experiment [1]; less than 0.125 µg/mL in experiment [2]; less than 0.125 µg/mL in [3]; 0.5 µg/mL (≈ 0.428 µM) in experiment [4]; 2 µg/mL (≈ 1.71 µM) in [5]; 0.5 µg/mL (≈ 0.428 µM) in experiment [6]. Further, the Minimum inhibitory concentration in experiment [7] was 0.5 µg/mL (≈ 0.428 µM); in [8], 0.5 µg/mL (≈ 0.428 µM); in experiment [9], less than 0.125 µg/mL; in experiment [10] it was 0.5 µg/mL (≈ 0.428 µM); in [11], less than 0.125 µg/mL; in experiment [12], 1 µg/mL (≈ 0.855 µM). Also, the Minimum inhibitory concentration in experiment [13] came to 0.5 µg/mL (≈ 0.428 µM).

Regarding `CC[C@@H]1NC(=O)[C@@H](CC(C)C)NC(=O)[C@H](CCN)NC(=O)[C@@H](NC(=O)[C@H](CN)NC(=O)[C@@H](NC(=O)[C@H](CCN)NC(=O)c2nc3ccccc3o2)[C@@H](C)O)CCNC(=O)[C@H]([C@@H](C)O)NC(=O)[C@H](CCN)NC(=O)[C@H](CCN)NC1=O` [Compound 74] (X7-[Dab]T[Dap][Dab][Dab][dL][Abu][Dab][Dab]T; lactam 4-C), the Minimum inhibitory concentration in experiment [1] is 0.5 µg/mL (≈ 0.442 µM); in [2], 0.25 µg/mL (≈ 0.221 µM); in experiment [3] it was less than 0.125 µg/mL; in experiment [4], less than 0.125 µg/mL; in experiment [5], 0.5 µg/mL (≈ 0.442 µM); in experiment [6], 0.25 µg/mL (≈ 0.221 µM). Besides, the Minimum inhibitory concentration in experiment [7] was 0.25 µg/mL (≈ 0.221 µM); in [8] it was 1 µg/mL (≈ 0.883 µM); in experiment [9], less than 0.125 µg/mL; in experiment [10], 1 µg/mL (≈ 0.883 µM); in experiment [11], 0.25 µg/mL (≈ 0.221 µM); in [12], 0.5 µg/mL (≈ 0.442 µM). Besides, the Minimum inhibitory concentration in experiment [13] was found to be 0.5 µg/mL (≈ 0.442 µM).

On to `CC[C@@H]1NC(=O)[C@@H](CC(C)C)NC(=O)[C@H](CCN)NC(=O)[C@@H](NC(=O)[C@H](CN)NC(=O)[C@@H](NC(=O)[C@H](CCN)NC(=O)c2noc3ccccc23)[C@@H](C)O)CCNC(=O)[C@H]([C@@H](C)O)NC(=O)[C@H](CCN)NC(=O)[C@H](CCN)NC1=O` [Compound 75] (X39-[Dab]T[Dap][Dab][Dab][dL][Abu][Dab][Dab]T; lactam 4-C), for which the Minimum inhibitory concentration is 0.5 µg/mL (≈ 0.442 µM) in [1]; 0.25 µg/mL (≈ 0.221 µM) in experiment [2]; less than 0.125 µg/mL in [3]; less than 0.125 µg/mL in experiment [4]; 1 µg/mL (≈ 0.883 µM) in [5]; 0.5 µg/mL (≈ 0.442 µM) in [6]. The Minimum inhibitory concentration was 0.5 µg/mL (≈ 0.442 µM) in experiment [7]; 0.5 µg/mL (≈ 0.442 µM) in experiment [8]; less than 0.125 µg/mL in [9]; 1 µg/mL (≈ 0.883 µM) in experiment [10]; 0.25 µg/mL (≈ 0.221 µM) in experiment [11]; 1 µg/mL (≈ 0.883 µM) in experiment [12]. In [13], the Minimum inhibitory concentration stood at 0.5 µg/mL (≈ 0.442 µM).

These data come from patent US11225505B2, “Antimicrobial polymyxin derivative compounds” (MONASH UNIVERSITY, priority 2015, dated 2022).
